“And” between values parts separate entries of the source, which are not always exact repeats. Equal values may be shown once. Read-outs that look alike come from different tables or passages of the source.
What was measured:
VIM-2 = target: T1, VIM-2 (Pseudomonas aeruginosa, UniProt Q9K2N0); experiment: VIM-2 enzyme kinetics with nitrocefin, competitive inhibition model; format: biochemical
T1 construct: The activity of purified VIM-2 was measured spectrophotometrically; made in house
Experimental: Nitrocefin was used as the substrate, as it is a chromogenic cephalosporin. The activity of purified VIM-2 was measured spectrophotometrically (Cytation 3, BioTek, Winooski, VT, USA) in a potassium phosphate buffer (PBS, pH = 7.4, prepared according to a published recipe).

[1] = design: method as in PMID 27864057; details: read-out: Kd (Zn binding); cited from earlier work
[2] = Toxicity against wild type human HEK 293T cells; format: cell-based; details: HEK293T cells (wild type); quercetin analogs alone; human kidney cell line HEK293T
[3] = tested on: PAX5VIM-2 (VIM-2 expressing bioluminescent PA); experiment: MIC assay against PAX5VIM-2 (CLSI, MHB-2); format: cell-based, Pseudomonas aeruginosa
Experimental: MIC assays were carried out following the Clinical and Laboratory Standards Institute (CLSI) established guidelines using MHB-2 and bacterial concentrations of 5 × 10^5 CFU/mL [57, 58]. A varying concentration of quercetin derivatives or conventional antibiotics was dissolved in the media with bacteria cells. The resulting suspensions were transferred to a 96-well microliter plate at 200 μL/well (triplicate for each compound). The plate was then incubated overnight at 37 °C. The MIC was determined as the concentration at which no growth was observed.

PAX5-WT = experiment: Single dose inhibition against SBL-producing PAX5-WT; format: cell-based, Pseudomonas aeruginosa; details: amoxicillin 25 μM; amoxicillin:taxifolin 1:1; QATC 2:1:2
Experimental: Bacteria were diluted to 5 × 10^5 CFU/mL in MH broth (MHB). A growth control containing only bacteria and a negative control containing only MHB were added. Test wells were treated with either 25 µM meropenem, ceftazidime, amoxicillin, or doripenem, as well as 1:1 combinations of the previous antibiotics with vaborbactam. Each set was repeated in triplicate, and the final viability was determined in reference to the growth control.
Supplementary Figure S9. Single dose inhibition of taxifolin against SBL-producing PAX5-WT. Concentration of amoxicillin was 25 μM for all samples. The molar ratio of the augmentin was 2:1 (amoxicillin:clavulanate); the molar ratio of the amoxicillin:taxifolin was 1:1; the molar ratio of the QATC was 2:1:2 (amoxicillin:clavulanate:taxifolin).
Supplementary Figure S10. […]

HEK 293T cells = experiment: Toxicity against wild type human HEK 293T cells; format: cell-based; details: quercetin analogs alone; human kidney cell line HEK293T
[4] = inhibitor fixed at 500 μM, nitrocefin 5 to 100 μM, PBS pH 7.4, 10 min pre-incubation, read-out: VIM-2, Ki
[5] = quercetin analogs in combination with augmentin (2:1 molar amoxicillin:clavulanate), PAX5VIM-2

Row | Molecule | Ki (VIM-2; [4]) [µM] | CC50 [2] [µM] | MIC [3, 5] [µg/mL] | other results
1 | O=c1c(O)c(-c2ccc(O)c(O)c2)oc2cc(O)cc(O)c12 [1a, quercetin] | 41 ± 4 |  |  | Kd [1]: ~100 µM
2 | O=c1cc(-c2ccc(O)c(O)c2)oc2c(C3OC(CO)C(O)C(O)C3O)c(O)cc(O)c12 (stereo not drawn) [1d] | 34 ± 4 |  |  | 
3 | O=c1cc(-c2ccc(O)c(O)c2)oc2cc(O)cc(O)c12 [11a] | 36 ± 2 | 175 | 7.2 | 
4 | O=C(O)[C@H]1O[C@@H](Oc2cc(O)c3c(=O)cc(-c4ccc(O)c(O)c4)oc3c2)[C@H](O)[C@@H](O)[C@@H]1O [11b] | 52 ± 9 | 182 | 11.6 | 
5 | CC1(C)S[C@@H]2[C@H](NC(=O)[C@H](N)c3ccc(O)cc3)C(=O)N2[C@H]1C(=O)O [amoxicillin, reference compound] |  |  |  | MIC ([3]; Pseudomonas aeruginosa, read-out: MIC of amoxicillin): 100 µM and 36 µg/mL
6 | O=c1c(O)c(-c2cc(O)c(O)c(O)c2)oc2cc(O)cc(O)c12 [compound 3] | 42 ± 1 |  | 9.4 | 
7 | O=c1c(O)c(-c2ccc(O)c(O)c2)oc2cc(O)c(O)c(O)c12 [compound 4, quercetagetin] |  |  | 3.9 | Ki (VIM-2): 13 ± 2 µM
8 | O=C1c2c(O)cc(O)cc2OC(c2ccc(O)c(O)c2)C1O (stereo not drawn) [compound 5, taxifolin] | 8 ± 1 | > 200 | 3.1 | benefit in the killing of SBL-only PAX5-WT (PAX5-WT): unable to provide any significant benefit in the killing; concentration inhibiting VIM-2 expressing P. aeruginosa cell proliferation ([3]; as part of a triple combination with amoxicillin and clavulanate): < 4 µg/mL
9 | COc1ccc(-c2cc(=O)c3c(O)cc(O)cc3o2)cc1O [compound 12] |  |  | 7.5 | 
10 | COc1ccc(-c2oc3cc(OC)c(OC)c(O)c3c(=O)c2OC)cc1O [compound 13] |  | > 200 | 9.4 | 
11 | chrysoeriol [compound 14] |  |  | 7.6 | CC50 (HEK 293T cells): > 200 µM

— paper PMC10673258, “Taxifolin as a Metallo-β-Lactamase Inhibitor in Combination with Augmentin against Verona Imipenemase 2 Expressing Pseudomonas aeruginosa” (Microorganisms, 2023)
